Reference: patent US20250340552A1, “COMPOUNDS, COMPOSITIONS AND METHODS OF TREATING DISORDERS” (HOTSPOT THERAPEUTICS, INC., priority 2022, published 2025)
Read-outs that look alike come from different tables or passages of the source.

Biological target: T1, Cbl-B (Homo sapiens, UniProt Q13191)
T1 construct: MSD-Based Assay for Degradation of Cbl-B in THP-1 Cells; endogenous in cells; host or cells: THP-1 (title) / Jurkat (protocol text)
Assay: MSD-based assay for degradation of Cbl-B in THP-1 cells
Format: cell-based
Procedure: MSD-Based Assay for Degradation of Cbl-B in THP-1 Cells
Assay plates were then shaken at 600 rpm for 5 minutes, followed by incubation for 24 hours in the 37° C. TC incubator. […] Cell debris was then spun down at maximum speed (about 3200 g) for 30 min and lysates frozen in the −80° C. fridge. Meanwhile, MSD plates (L15XA-3) were coated overnight at 4° C. with 1 ug/mL capture antibody (Anti-Cbl-B antibody, 246C5a and Mouse mAB, ab54362). […] Blocking buffer was 3% Blocker A (MSD, R93BA-4) in TBST. Plates were washed 3× with 150 ul/well of 1×TBST and sample lysates (70 ul/well) then added, followed by shaking for 1 hr at RT, 600 rpm. […] Plates were again washed 3× with 150 ul/well of 1×TBST, followed by addition of Secondary Detection antibody, SULFO-TAG anti-species antibody (Anti Rabbit Antibody (R32AB-5) MSD, R32AB-1) at a final concentration of 1 ug/ml and 25 uL/well, followed by shaking for 1 hr at RT, 600 rpm. Plates were again washed 3× with 150 ul/well of 1×TBST, followed by addition of 1×MSD reading buffer (MSD, R92TC-2), 150 ul/well, diluted from 4× with water.
Compound Dmax were binned into A through D as follows: A indicates >70%, B indicates 50-70%, C indicates 30-50%, D indicates <30%.

[1] = Cbl-B degradation, Jurkat cells seeded (heading: THP-1 cells), 24 hours incubation, MSD readout
[2] = Cbl-B degradation, Jurkat cells seeded (heading: THP-1 cells), 24 hours incubation, MSD readout, read-out: Dmax

T1 sequence (Q13191 whole entry): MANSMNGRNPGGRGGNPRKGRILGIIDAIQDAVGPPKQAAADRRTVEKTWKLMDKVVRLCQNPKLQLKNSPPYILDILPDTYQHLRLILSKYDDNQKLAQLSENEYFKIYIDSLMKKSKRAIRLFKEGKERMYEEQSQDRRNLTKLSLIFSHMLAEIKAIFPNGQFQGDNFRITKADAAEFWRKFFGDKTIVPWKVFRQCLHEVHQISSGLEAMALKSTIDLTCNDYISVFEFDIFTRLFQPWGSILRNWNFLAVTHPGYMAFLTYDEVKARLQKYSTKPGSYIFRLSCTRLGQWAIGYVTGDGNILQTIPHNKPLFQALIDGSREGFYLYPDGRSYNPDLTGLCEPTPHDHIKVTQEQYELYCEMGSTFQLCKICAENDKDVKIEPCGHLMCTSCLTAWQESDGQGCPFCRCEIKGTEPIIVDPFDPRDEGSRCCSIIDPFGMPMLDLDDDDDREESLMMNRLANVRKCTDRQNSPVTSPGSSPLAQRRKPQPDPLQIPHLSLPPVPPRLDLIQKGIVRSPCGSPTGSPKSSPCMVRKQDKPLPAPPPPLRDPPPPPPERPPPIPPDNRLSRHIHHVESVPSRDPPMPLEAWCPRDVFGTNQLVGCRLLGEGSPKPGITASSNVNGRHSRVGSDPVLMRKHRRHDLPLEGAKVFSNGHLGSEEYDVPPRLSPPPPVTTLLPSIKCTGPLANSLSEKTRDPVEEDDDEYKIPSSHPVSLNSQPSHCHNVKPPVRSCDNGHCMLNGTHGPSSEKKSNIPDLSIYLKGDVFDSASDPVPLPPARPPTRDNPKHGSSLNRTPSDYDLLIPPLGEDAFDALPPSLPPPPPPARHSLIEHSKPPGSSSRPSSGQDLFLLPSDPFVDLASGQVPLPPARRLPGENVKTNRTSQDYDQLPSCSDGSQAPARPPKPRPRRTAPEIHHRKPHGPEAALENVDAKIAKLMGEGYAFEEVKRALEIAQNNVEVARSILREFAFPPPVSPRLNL

DC50 [1] [nM]	Dmax [2] [%]	SMILES	Dmax (THP-1) [%]
30 to 300	30 to 50	Cn1cnnc1CC1(c2cccc(-n3cc4c(C(F)(F)F)cc(CN5CCC[C@H](OCc6ccc(CN7CCN(c8ccc9c(c8)CN([C@H]8CCC(=O)NC8=O)C9=O)CC7)cc6)C5)cn4c3=O)c2)COC1 (single isomer, unassigned) [Compound 84]	–
> 10000	30 to 50	Cn1cnnc1[C@@H](c1cccc(-n2cc3c(C(F)(F)F)cc(CN4CCC(CN5CCN(c6ccc7c(c6)CN([C@@H]6CCC(=O)NC6=O)C7=O)CC5)CC4)cn3c2=O)c1)C1CCC1 (single isomer, unassigned) [Compound 85]	–
1000 to 10000	30 to 50	Cn1cnnc1[C@@H](c1cccc(-n2cc3c(C(F)(F)F)cc(CN4CCC(CN5CCN(c6ccc7c(c6)CN([C@H]6CCC(=O)NC6=O)C7=O)CC5)CC4)cn3c2=O)c1)C1CCC1 (single isomer, unassigned) [Compound 86]	–
< 30	> 70	Cn1cnnc1[C@@H](c1cccc(-n2cc3c(C(F)(F)F)cc(CN4CCC(OCCOCc5ccc(CN6CCN(c7ccc8c(c7)CN([C@H]7CCC(=O)NC7=O)C8=O)CC6)cc5)CC4)cn3c2=O)c1)C1CCC1 (single isomer, unassigned) [Compound 88]	–
< 30	> 70	Cn1cnnc1[C@@H](c1cccc(-n2cc3c(C(F)(F)F)cc(CN4CCC(OCc5ccc(CN6CCN(c7ccc8c(c7)CN([C@H]7CCC(=O)NC7=O)C8=O)CC6)cc5)CC4)cn3c2=O)c1)C1CCC1 (single isomer, unassigned) [Compound 92]	–
< 30	> 70	Cn1cnnc1CC1(c2cccc(-n3cc4c(C(F)(F)F)cc(CN5CCC(OCc6ccc(CN7CCN(c8ccc9c(c8)CN([C@H]8CCC(=O)NC8=O)C9=O)CC7)cc6)CC5)cn4c3=O)c2)COC1 (single isomer, unassigned) [Compound 94]	–
> 10000	< 30	Cn1cnnc1[C@@H](c1cccc(-n2cc3c(C(F)(F)F)cc(-c4nccn4CCOCCN4CCC(CN5CCN(c6ccc7c(c6)CN([C@H]6CCC(=O)NC6=O)C7=O)CC5)CC4)cn3c2=O)c1)C1CCC1 (single isomer, unassigned) [Compound 98]	–
> 10000	< 30	Cn1cnnc1CC1(c2cccc(-n3cc4c(C(F)(F)F)cc(-c5nccn5CCOCCN5CCC(CN6CCN(c7ccc8c(c7)CN([C@H]7CCC(=O)NC7=O)C8=O)CC6)CC5)cn4c3=O)c2)COC1 (single isomer, unassigned) [Compound 100]	–
300 to 1000	–	CN(CCO[C@@H]1CCCN(Cc2cc(C(F)(F)F)c3cn(-c4cccc([C@H](c5nncn5C)C5CCC5)c4)c(=O)n3c2)C1)C(=O)c1ccc(N2CCN(c3ccc4c(c3)CN([C@@H]3CCC(=O)NC3=O)C4=O)CC2)cc1 (single isomer, unassigned) [Compound 103]	–
30 to 300	–	CN(CCO[C@H]1CCCN(Cc2cc(C(F)(F)F)c3cn(-c4cccc([C@H](c5nncn5C)C5CCC5)c4)c(=O)n3c2)C1)C(=O)c1ccc(N2CCN(c3ccc4c(c3)CN([C@@H]3CCC(=O)NC3=O)C4=O)CC2)cc1 (single isomer, unassigned) [Compound 105]	–
< 30	50 to 70	CN(CCOC1CCN(Cc2cc(C(F)(F)F)c3cn(-c4cccc([C@H](c5nncn5C)C5CCC5)c4)c(=O)n3c2)CC1)C(=O)c1ccc(C2CCN(c3ccc4c(c3)CN([C@H]3CCC(=O)NC3=O)C4=O)CC2)cc1 (single isomer, unassigned) [Compound 108]	–
30 to 300	–	Cn1cnnc1[C@@H](c1cccc(-n2cc3c(C(F)(F)F)cc(CN4CCC(CCN5CCC(CN6CCN(c7ccc8c(c7)CN([C@@H]7CCC(=O)NC7=O)C8=O)CC6)CC5)CC4)cn3c2=O)c1)C1CCC1 (single isomer, unassigned) [Compound 109]	–
< 30	> 70	Cn1cnnc1[C@@H](c1cccc(-n2cc3c(C(F)(F)F)cc(CN4CCC(CCN5CCC(CN6CCN(c7ccc8c(c7)CN([C@H]7CCC(=O)NC7=O)C8=O)CC6)CC5)CC4)cn3c2=O)c1)C1CCC1 (single isomer, unassigned) [Compound 110]	–
30 to 300	50 to 70	Cn1cnnc1[C@@H](c1cccc(-n2cc3c(C(F)(F)F)cc(CN4CCC(CC(=O)N5CCC(CN6CCN(c7ccc8c(c7)CN([C@@H]7CCC(=O)NC7=O)C8=O)CC6)CC5)CC4)cn3c2=O)c1)C1CCC1 (single isomer, unassigned) [Compound 111]	–
< 30	> 70	Cn1cnnc1[C@@H](c1cccc(-n2cc3c(C(F)(F)F)cc(CN4CCC(CC(=O)N5CCC(CN6CCN(c7ccc8c(c7)CN([C@H]7CCC(=O)NC7=O)C8=O)CC6)CC5)CC4)cn3c2=O)c1)C1CCC1 (single isomer, unassigned) [Compound 112]	–
1000 to 10000	30 to 50	CN(CC1CCN(Cc2cc(C(F)(F)F)c3cn(-c4cccc([C@H](c5nncn5C)C5CCC5)c4)c(=O)n3c2)CC1)C(=O)c1ccc(N2CCN(c3ccc4c(c3)CN([C@@H]3CCC(=O)NC3=O)C4=O)CC2)cc1 (single isomer, unassigned) [Compound 117]	–
< 30	> 70	CN(CC1CCN(Cc2cc(C(F)(F)F)c3cn(-c4cccc([C@H](c5nncn5C)C5CCC5)c4)c(=O)n3c2)CC1)C(=O)c1ccc(N2CCN(c3ccc4c(c3)CN([C@H]3CCC(=O)NC3=O)C4=O)CC2)cc1 (single isomer, unassigned) [Compound 118]	–
> 10000	< 30	CN(CCC(=O)N1CCC(CN2CCN(c3ccc4c(c3)CN([C@@H]3CCC(=O)NC3=O)C4=O)CC2)CC1)Cc1cc(C(F)(F)F)c2cn(-c3cccc([C@H](c4nncn4C)C4CCC4)c3)c(=O)n2c1 (single isomer, unassigned) [Compound 119]	–
30 to 300	50 to 70	CN(CCC(=O)N1CCC(CN2CCN(c3ccc4c(c3)CN([C@H]3CCC(=O)NC3=O)C4=O)CC2)CC1)Cc1cc(C(F)(F)F)c2cn(-c3cccc([C@H](c4nncn4C)C4CCC4)c3)c(=O)n2c1 (single isomer, unassigned) [Compound 120]	–
30 to 300	50 to 70	Cn1cnnc1[C@@H](c1cccc(-n2cc3c(C(F)(F)F)cc(CN4CCN(CC(=O)N5CCC(CN6CCN(c7ccc8c(c7)CN([C@@H]7CCC(=O)NC7=O)C8=O)CC6)CC5)CC4)cn3c2=O)c1)C1CCC1 (single isomer, unassigned) [Compound 121]	–
< 30	> 70	Cn1cnnc1[C@@H](c1cccc(-n2cc3c(C(F)(F)F)cc(CN4CCN(CC(=O)N5CCC(CN6CCN(c7ccc8c(c7)CN([C@H]7CCC(=O)NC7=O)C8=O)CC6)CC5)CC4)cn3c2=O)c1)C1CCC1 (single isomer, unassigned) [Compound 122]	–

SMILES	DC50 [1] [nM]	Dmax [2] [%]	Dmax (THP-1) [%]
Cn1cnnc1[C@@H](c1cccc(-n2cc3c(C(F)(F)F)cc(CN4CCC(OCCOCc5ccc(CN6CCN(c7ccc8c(c7)CN([C@@H]7CCC(=O)NC7=O)C8=O)CC6)cc5)CC4)cn3c2=O)c1)C1CCC1 (single isomer, unassigned) [Compound 87]	300 to 1000	30 to 50	–
CN(CCOC1CCN(Cc2cc(C(F)(F)F)c3cn(-c4cccc([C@H](c5nncn5C)C5CCC5)c4)c(=O)n3c2)CC1)C(=O)c1ccc(N2CC3CC(C2)N3c2ccc3c(c2)CN([C@@H]2CCC(=O)NC2=O)C3=O)cc1 (single isomer, unassigned) [Compound 89]	1000 to 10000	–	30 to 50
CN(CCOC1CCN(Cc2cc(C(F)(F)F)c3cn(-c4cccc([C@H](c5nncn5C)C5CCC5)c4)c(=O)n3c2)CC1)C(=O)c1ccc(N2CC3CC(C2)N3c2ccc3c(c2)CN([C@H]2CCC(=O)NC2=O)C3=O)cc1 (single isomer, unassigned) [Compound 90]	1000 to 10000	30 to 50	–
Cn1cnnc1[C@@H](c1cccc(-n2cc3c(C(F)(F)F)cc(CN4CCC(OCc5ccc(CN6CCN(c7ccc8c(c7)CN([C@@H]7CCC(=O)NC7=O)C8=O)CC6)cc5)CC4)cn3c2=O)c1)C1CCC1 (single isomer, unassigned) [Compound 91]	300 to 1000	–	30 to 50
Cn1cnnc1CC1(c2cccc(-n3cc4c(C(F)(F)F)cc(CN5CCC(OCc6ccc(CN7CCN(c8ccc9c(c8)CN([C@@H]8CCC(=O)NC8=O)C9=O)CC7)cc6)CC5)cn4c3=O)c2)COC1 (single isomer, unassigned) [Compound 93]	30 to 300	50 to 70	–
CN(CCOC1CCN(Cc2cc(C(F)(F)F)c3cn(-c4cccc([C@H](c5nncn5C)C5CCC5)c4)c(=O)n3c2)CC1)C(=O)c1ccc(C2CCN(c3ccc4c(c3)CN([C@@H]3CCC(=O)NC3=O)C4=O)CC2)cc1 (single isomer, unassigned) [Compound 107]	30 to 300	–	50 to 70
Cn1cnnc1[C@@H](c1cccc(-n2cc3c(C(F)(F)F)cc(CN4CCC(OCCc5ccc(CN6CCN(c7ccc8c(c7)CN([C@@H]7CCC(=O)NC7=O)C8=O)CC6)cc5)CC4)cn3c2=O)c1)C1CCC1 (single isomer, unassigned) [Compound 115]	> 10000	< 30	–
